This is an account of results in paper PMC6010102, “N-thioalkylcarbazoles derivatives as new anti-proliferative agents: synthesis, characterisation and molecular mechanism evaluation” (Journal of Enzyme Inhibition and Medicinal Chemistry, 2018).

In assay [1] the test system is MCF-7 human breast cancer cells. Description: MTT cell viability, MCF-7. It is filed as cell-based. Conditions: MCF7, 72 h exposure, mean ± SD, read-out: Antiproliferative activity IC50, MCF-7. From the text: (§1) The six cell lines used in this work were purchased from American Type Culture Collection (ATCC, Manassas, VA). MCF-7 human breast cancer cells, oestrogen receptor (ER) positives, were maintained in Dulbecco’s Modified Eagle’s Medium/Nutrient Mixture F-12 Ham (DMEM/F12), supplemented with 5% foetal bovine serum (FBS) and 100 U/ml penicillin/streptomycin, as previously described. MDA-MB-231, human breast cancer cells, oestrogen receptor (ER) negative, were maintained in Dulbecco’s Modified Eagle’s Medium/Nutrient Mixture F-12 Ham (DMEM/F12), supplemented with 5% Newborn Calf Serum (NCS) and 100 U/ml penicillin/streptomycin. HeLa human epithelial cervix carcinoma cells, oestrogen receptor (ER) negative, and ISHIKAWA human endometrial adenocarcinoma cell, oestrogen receptor positive, were maintained in minimum essential medium (MEM), supplemented with 10% FBS, 100 U/ml penicillin/streptomycin and 1% non-essential amino acid. 3T3-L1 cells line of murine fibroblasts of embryonic type, were maintained in DMEM, supplemented with 10% NCS and 100 U/ml penicillin/streptomycin. MCF-10A human mammary epithelial cells were cultured in DMEM/F12 medium, supplemented with 5% horse serum (HS) (Eurobio, Les Ullis, Cedex, France), 100 U/ml penicillin/streptomycin, […] hydrocortisone, 20 ng/ml hEGF (human epidermal growth factor), 10 μg/ml insulin and […] cholera enterotoxin (Sigma-Aldrich, Milano, Italy). Cells were maintained at 37 °C in a humidified atmosphere of 95% air and 5% CO2 and periodically screened for contamination.
(§2) MDA-MB-231, MCF-7, HeLa and ISHIKAWA cells were grown in complete medium and, before being treated, they were serum deprived for 24 h, to allow cell cycle synchronisation. Then cells were grown in phenol red-free medium supplemented with 1% DCC (destran-coated charcoal treated) FBS, then treated with increasing concentrations (0.1, 1, 10, 20, 40, 100 µM) of each compound for 72 h. Compounds were dissolved in dimethylsulphoxide (DMSO) (Sigma, St. Louis, MO) and diluted in each cell medium. Untreated cells, used as a control, were added with DMSO alone (final concentration 0.1%). Cell viability was assessed using the 3-[4,5-dimethylthiazol-2-yl]-2,5-diphenyltetrazolium bromide reagent (MTT), according to the protocol from manufacturer (Sigma-Aldrich, Milan, Italy), as previously described[37] ^, [38]. For each sample, the mean absorbance, measured at 570 nm, was expressed as a percentage of the control and plotted versus drug concentration to determine for each cell line the IC50 values (namely, drugs concentrations able to reduce cell viability of 50% with respect to the control), using GraphPad Prism 5 Software (GraphPad Inc., San Diego, CA)[39]. Each experiment was carried out in quadruplicate. Standard deviations (SD) were shown.

The subject of the next assay is caspase-8. As to the kind of experiment: Caspase-Glo assay, caspase-8. The assay is classed as cell-based, human. Conditions: HeLa cells, concentration equal to IC50, 24 h. As to the method: (§3) Caspases-3/7, -8 and -9 activities were measured with the Caspase-Glo Assay, according to the guidelines of manufacturer (Caspase-Glo® 3/7, 8 and 9 Assay Systems, Promega Corporation, Madison, WI) as described in Iacopetta et al.[43].

The next assay has as its system caspases 3 and 7. As to the kind of experiment: Caspase-Glo assay, caspases 3/7. Conditions: HeLa cells, concentration equal to IC50, 24 h. It is filed as cell-based, human. As to the method: as §3
The test system of the next assay is Parp-1. As to the kind of experiment: Parp-1 cleavage immunoblot in HeLa cells. The assay is classed as cell-based, human. Conditions: 10 µM, 24, 48 and 72 h, western blot. On the procedure:
Cells were serum deprived for 24 h, treated for 24, 48 and 72 h with the compound to be tested. At the end, cells were rinsed twice with ice cold PBS and immediately lysed in lysis buffer (50 mM Tris-HCl, pH 7, 5–8; 150 mM NaCl, 1% Igepal CA-630; 0.1% SDS; 0.5% sodium deoxycholate) containing 1% sodium orthovanadate and 1% phenylmethylsulphonyl fluoride (PMSF). Cell lysates were cleared by centrifugation at 14,000 g for 10 min at 4 °C. Protein concentrations were determined using the Bradford protein assay[40] (Bio-Rad Laboratories, Milan, Italy) according to the directions from the manufacturer. Equal amounts of cell extracts (about 20 µg) were resolved under denaturing conditions by electrophoresis in 10% polyacrylamide gels containing SDS (SDS-PAGE) and transferred to nitrocellulose membranes by electroblotting (GE Healthcare, Piscataway, NJ). […] After incubation with the appropriate secondary antibody (VWR International PBI, MI, Italy) for 1 h at room temperature, the proteins of interest were detected on the membranes by using enhanced chemiluminescence (Amersham ECL Prime Western Blotting Detection Reagent, GE Healthcare, Piscataway, NJ).
Background: Immunoblotting shows a protein as a band on a membrane.

Assay [2] has as its system HeLa human epithelial cervix carcinoma cells. Description: MTT cell viability, HeLa. The assay is classed as cell-based. Conditions: 72 h exposure, mean ± SD, read-out: Antiproliferative activity IC50, HeLa.
Description: as §1, §2

Another assay concerns the target hTopoII (Homo sapiens, UniProt P11388). As to the kind of experiment: Human topoisomerase II decatenation assay. It is filed as biochemical. Conditions: 10 µM. On the procedure:
Human topoisomerase II decatenation assay: hTopoII decatenation assays were performed as reported in Iacopetta et al.[8].
Figure 2. hTopoII inhibition assay. kDNA was incubated with human Topoisomerase II in the absence (lane C, vehicle DMSO) or presence of compound 5c (lane 5c) or Ellipticine (lane E) at 10 and 50 µM, respectively. Lane K, kinetoplast DNA (kDNA).

In assay [3] the test system is MDA-MB-231 human breast cancer cells. As to the kind of experiment: MTT cell viability, MDA-MB-231. The assay is classed as cell-based. Conditions: 72 h exposure, mean ± SD, read-out: Antiproliferative activity IC50, MDA-MB-231.
Description: as §1, §2

Sequence of hTopoII (P11388 whole entry): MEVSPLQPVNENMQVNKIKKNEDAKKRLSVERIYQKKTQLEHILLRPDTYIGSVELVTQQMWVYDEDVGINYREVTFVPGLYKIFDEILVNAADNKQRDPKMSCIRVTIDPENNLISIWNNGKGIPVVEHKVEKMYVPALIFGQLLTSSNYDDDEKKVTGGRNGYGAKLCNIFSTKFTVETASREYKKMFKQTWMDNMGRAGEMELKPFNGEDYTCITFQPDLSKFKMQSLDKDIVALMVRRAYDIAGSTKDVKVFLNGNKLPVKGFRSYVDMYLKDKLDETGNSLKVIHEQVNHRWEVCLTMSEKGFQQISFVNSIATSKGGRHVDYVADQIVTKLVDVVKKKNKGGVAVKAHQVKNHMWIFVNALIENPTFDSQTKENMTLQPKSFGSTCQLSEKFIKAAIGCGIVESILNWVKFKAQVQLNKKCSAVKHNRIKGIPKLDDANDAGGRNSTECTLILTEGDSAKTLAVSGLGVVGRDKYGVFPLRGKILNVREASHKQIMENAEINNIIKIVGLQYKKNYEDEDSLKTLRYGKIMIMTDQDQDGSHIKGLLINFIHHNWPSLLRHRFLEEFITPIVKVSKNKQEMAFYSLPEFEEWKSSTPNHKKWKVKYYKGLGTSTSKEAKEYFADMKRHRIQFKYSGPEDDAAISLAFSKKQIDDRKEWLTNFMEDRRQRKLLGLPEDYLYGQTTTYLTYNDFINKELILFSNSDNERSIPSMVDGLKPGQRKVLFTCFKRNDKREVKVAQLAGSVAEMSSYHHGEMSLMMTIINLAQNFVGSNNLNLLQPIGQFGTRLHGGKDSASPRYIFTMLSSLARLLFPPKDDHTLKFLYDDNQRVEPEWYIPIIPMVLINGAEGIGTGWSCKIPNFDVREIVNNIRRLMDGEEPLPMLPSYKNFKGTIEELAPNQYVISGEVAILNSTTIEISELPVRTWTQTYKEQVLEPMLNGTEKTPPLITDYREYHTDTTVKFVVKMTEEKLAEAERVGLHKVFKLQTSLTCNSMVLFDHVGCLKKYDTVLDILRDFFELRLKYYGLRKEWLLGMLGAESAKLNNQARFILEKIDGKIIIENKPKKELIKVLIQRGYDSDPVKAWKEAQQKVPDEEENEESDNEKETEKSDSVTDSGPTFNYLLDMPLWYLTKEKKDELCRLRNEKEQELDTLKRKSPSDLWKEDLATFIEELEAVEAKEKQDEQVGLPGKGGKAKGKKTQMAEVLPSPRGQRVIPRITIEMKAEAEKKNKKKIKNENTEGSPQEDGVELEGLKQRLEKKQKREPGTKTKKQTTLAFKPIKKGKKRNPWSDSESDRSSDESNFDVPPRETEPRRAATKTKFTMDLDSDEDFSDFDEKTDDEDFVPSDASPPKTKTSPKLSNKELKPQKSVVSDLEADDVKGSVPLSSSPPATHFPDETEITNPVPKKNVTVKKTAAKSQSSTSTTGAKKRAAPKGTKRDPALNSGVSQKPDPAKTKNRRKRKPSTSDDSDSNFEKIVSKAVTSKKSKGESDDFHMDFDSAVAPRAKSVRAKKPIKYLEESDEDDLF

Usually IC50 stands for the concentration needed to halve the response being measured. `Cc1ccc(C)c2c1c1cc(Br)ccc1n2CCCCCCCS` [5c, 7-(6-Bromo-1,4-dimethyl-9H-carbazol-9-yl)-heptane-1-thiol]: the half-maximal inhibitory concentration (IC50) in assay [1] stood at 54.9 ± 1 µM; in assay [2] it was 11.3 ± 0.63 µM; in assay [3], 27.2 ± 0.75 µM. Further, the caspase-8 activity entry in the assay with caspase-8 is listed as “no increase of caspase-8 activity”. For the same compound, the “caspases 3 and 7 activity” value with caspases 3 and 7 is “clear increase of caspases 3 and 7 activity”. Also, the “Parp-1 cleavage (about 89 KDa form)” value in the assay on Parp-1 is given as “presence of the cleaved form of Parp-1”. At hTopoII, the “hTopoII inhibition (kDNA decatenation)” value is given as “able to inhibit hTopoII activity”.
